Reference: the RepoRT retention time repository (doi:10.1021/acs.analchem.2c02893)

Assay: RP, Thermo Scientific Acclaim RSLC 120 C18, 100 × 2.1 mm, 2.2 µm, 30 °C, 0.2 mL/min, estimated dead time 1.1 min; A: 90% water + 10% methanol + 0.01% formic acid + 5 mM ammonium formate, pH 3.61; B: methanol + 0.01% formic acid + 5 mM ammonium formate, pH 3.61; gradient (min/%B) 0/1 1/1 2/39 13/99.9 15/99.9 15.1/1 20.1/1
Conditions: stereoisomer not certain

SMILES | LC retention time [min]
On1nnc2ccccc21 [Benzotriazole-1-Hydroxy] | 3.88
O=C1OC(c2ccc(O)cc2)(c2ccc(O)cc2)c2ccccc21 [Phenolphthalein] | 7.06
CCCC(C(=O)c1ccccc1)N1CCCC1 (stereo not drawn) [PVP- Alpha] | 5.08
Cc1cc(Cl)ccc1OC(C)C(=O)O (stereo not given) [Mecoprop] | 8.27
CC(COc1ccc(Oc2ccccc2)cc1)Oc1ccccn1 (stereo not given) [Pyriproxyfen] | 12.6
CCCCCCCCCCCCCCCC[N+](C)(C)C [Hexadecyltrimethylammonium] | 12.9
NC(=O)CS(=O)C(c1ccccc1)c1ccccc1 (stereo not given) [Modafinil] | 6.76
CCCCCn1nc(C(=O)NC(C)(C)c2ccccc2)c2ccccc21 [Cumyl-PINACA] | 12.5
COP(=S)(OC)Oc1cc(Cl)c(Br)cc1Cl [Bromophos (Bromophos-methyl)] | 12.7
CN(CC1(C)CCCO1)S(=O)(=O)c1ccc(Cl)c(S(N)(=O)=O)c1 (stereo not given) [Mefruside] | 6.56
CN1CCCC1=O [N-Methyl-2-pyrrolidone] | 3.1
c1ccc2sc(NC3CCCCC3)nc2c1 [N-Cyclohexyl-2-benzothiazol-amine] | 10.9
CC(C)(C)C(O)C(Cc1ccc(Cl)cc1)n1cncn1 (stereo not given) [Paclobutrazole] | 9.49
Cc1onc(-c2ccccc2)c1C(=O)NC1C(=O)N2C1SC(C)(C)C2C(=O)O (stereo not given) [Oxacillin] | 6.9
CCOP(=S)(OCC)SCSP(=S)(OCC)OCC [Ethion] | 12.4
Cc1cc(C)n(-c2nc3ccccc3[nH]2)n1 [Rabenzazole] | 8.27
CCCc1nn(C)c2c(=S)nc(-c3cc(S(=O)(=O)N4CCN(CCO)CC4)ccc3OCC)[nH]c12 [Sildenafil-Hydroxythiohomo] | 10.5
CC(C)N(CCC(C(N)=O)(c1ccccc1)c1ccccn1)C(C)C (stereo not given) [Disopyramide] | 4.74
CC(C)Nc1nc(Cl)nc(NC(C)C)n1 [Propazine] | 9.16
CN(C)CCC(c1ccc(Cl)cc1)c1ccccn1 (stereo not given) [Chlorpheniramine] | 6.25
Cc1nc2n(c(=O)c1CCN1CCC(c3noc4cc(F)ccc34)CC1)CCCC2O (stereo not given) [Risperidone-9-OH (Paliperidone)] | 5.33
CC(C)(Oc1ccc(CCNC(=O)c2ccc(Cl)cc2)cc1)C(=O)O [Bezafibrate] | 8.77

SMILES | LC retention time [min]
OCCN1CCN(CCCN2c3ccccc3C=Cc3ccccc32)CC1 [Opipramol] | 7.83
CCCCCCCCCCCCN(C)C [N,N-Dimethyldodecylamine] | 10.4
CC(C)(Oc1ccc(C(=O)c2ccc(Cl)cc2)cc1)C(=O)O [Fenofibric acid] | 9.68
Cc1ccc(-c2nc3ccc(C)cn3c2CC(=O)N(C)C)cc1 [Zolpidem] | 5.8
CCCC1C(=O)N2C(N(C)C)=Nc3ccc(C)cc3N2C1=O (stereo not given) [Azapropazone] | 6.54
CN1Cc2c(N)cccc2C(c2ccccc2)C1 (stereo not given) [Nomifensine] | 5.42
CCCOC(=O)NCCCN(C)C [Propamocarb] | 3.5
CC(C)(C)C(O)C(=Cc1ccc(Cl)cc1)n1cncn1 (stereo not given) [Uniconazole] | 10.5
CCOP(=O)(OCC)Oc1cc(C)nc(C(C)C)n1 [Diazinon-O-analog] | 8.65
NC(=O)C1(N2CCCCC2)CCN(CCCC(=O)c2ccc(F)cc2)CC1 [Pipamperone] | 6.11
CCN(CC)CCc1c[nH]c2ccccc12 [DET] | 4.34
O=C(CCCN1CCC(O)(c2ccc(Br)cc2)CC1)c1ccc(F)cc1 [Bromperidol] | 7.12
C=C(Cl)CSC(=S)N(CC)CC [Vegadex (Sulfallate)] | 11.1
COc1ccc(CCN(C)CCCC(C#N)(c2cc(OC)c(OC)c(OC)c2)C(C)C)cc1OC (stereo not given) [Gallopamil] | 7.19
CN1CCN(c2cc3c(cc2F)c(=O)c(C(=O)O)cn3-c2ccc(F)cc2)CC1 [Difloxacin] | 4.96
CCN(CC)C(=O)C(Cl)=C(C)OP(=O)(OC)OC [Phosphamidon (Dimecron)] | 6.27
CC(=O)Nc1ccc(-c2ccc(C=NN3CC(=O)NC3=O)o2)cc1 [Acetaminodantrolene] | 5.67
CCN(CC)C(=O)c1cccnc1 [Nikethamide] | 4.64
CCC1(c2ccc(N)cc2)CCC(=O)NC1=O (stereo not given) [Aminoglutethimide] | 4.99
CN1CCc2cccc3c2C1Cc1ccc(O)c(O)c1-3 (stereo not given) [Apomorphine] | 4.28
CC1CC2C3CCC4=CC(=O)C=CC4(C)C3(F)C(O)CC2(C)C1(O)C(=O)CCl (stereo not given) [Clobetasol] | 9.44
COC(=O)C(NC(=O)c1cn(CCCCCF)c2ccccc12)C(C)C (stereo not given) [MMB-2201] | 10

SMILES | LC retention time [min]
CC(C(=O)c1ccc2c(c1)OCO2)N1CCCC1 (stereo not given) [MDPPP (3-4-Methylenedioxy-a-pyrrolidinopropiophenone)] | 4.13
COc1cc(OC)n2nc(S(=O)(=O)Nc3c(Cl)ccc(C)c3Cl)nc2n1 [Metosulam] | 7.1
COc1ccc(C(=CC(=O)N2CCOCC2)c2ccc(Cl)cc2)cc1OC [Dimethomorph] | 9.22
CCn1cc(C(=O)O)c(=O)c2cc3c(cc21)OCO3 [Oxolinic acid] | 6.03
CC(=O)Oc1ccc2c(CCN(C(C)C)C(C)C)c[nH]c2c1 [4-AcO-DIPT] | 4.88
CC1CC2C3CCC4=CC(=O)C=CC4(C)C3(F)C(O)CC2(C)C1(O)C(=O)CO (stereo not given) [Dexamethasone] | 8.38
CCNC(C)C(=O)c1ccccc1 (stereo not given) [Cathinone-Ethyl] | 3.93
CN(C)c1ccc(C(=C2C=CC(=[N+](C)C)C=C2)c2ccccc2)cc1 [Malachite green (MG)] | 8.34
CC=C1CC(C)C(C)(O)C(=O)OCC2=CC[N+]3([O-])CCC(OC1=O)C23 (stereo not given) [Senecionine-N-oxide] | 5.07
CNC(=O)ON=CC(C)(C)S(C)=O (stereo not given) [Aldicarb-sulfoxide] | 3.5
COC(=O)c1ccc(O)cc1 [Methylparaben] | 6
Cc1cccc(C)c1N(Cn1cccn1)C(=O)CS(C)=O (stereo not given) [Metazachlor BH 479-11] | 5.54
Nc1nc(N)nc(N)n1 [Melamine] | 1.45
CCON=C(OC(=O)c1ccccc1)c1c(OC)ccc(Cl)c1OC [Benzoximate] | 11.3
COC(=O)C1C(O)CC2CCC1N2C (stereo not given) [EME (Ecgonine methyl ester)] | 1.38
COc1c(N2CC3CCCNC3C2)c(F)cc2c(=O)c(C(=O)O)cn(C3CC3)c12 (stereo not given) [Moxifloxacin] | 5.17
CCC1CCCC(OC2CCC(N(C)C)C(C)O2)C(C)C(=O)C2=CC3C(C=C(C)C4CC(OC5OC(C)C(OC)C(OC)C5OC)CC43)C2CC(=O)O1 (stereo not given) [Spinosad D] | 11.8
CC(=O)C1(O)CCC2C3CC(C)C4=CC(=O)CCC4(C)C3CCC21C (stereo not given) [Medroxyprogesterone] | 10.7
CCOc1ccc2c3c1OC1C(O)C=CC4C(C2)N(C)CCC341 (stereo not given) [Morphine-Ethyl] | 4.08
COC=C(C(=O)OC)c1ccccc1COc1cc(C(F)(F)F)nc(OC(C)C)n1 [Fluacrypyrim] | 11.5
O=C(c1cccc(F)c1)N1CCC(N2CCN(c3ccccc3)CC2)CC1 [CC-2201] | 11.3
Cc1ccc(Cl)c(OCC(O)CNC(C)(C)C)c1 (stereo not given) [Bupranolol] | 7.07

SMILES | LC retention time [min]
COc1ccc2[nH]c(C)c(CCN(C)C)c2c1 [MeO-TMT (5-)] | 4.19
CC1(C)C(C(=O)c2cn(CCCCCF)c3ccccc23)C1(C)C [XLR-11] | 11.9
CCCCCCCCCCCCCCCCCC[N+](C)(C)CCCCCCCCCCCCCCCCCC [Dimethyldioctadecylammonium] | 15
COC(=O)NC(C(=O)NC(Cc1ccccc1)C(O)CN(Cc1ccc(-c2ccccn2)cc1)NC(=O)C(NC(=O)OC)C(C)(C)C)C(C)(C)C (stereo not given) [Atazanavir] | 10.9
CCCC(C)(COC(N)=O)COC(N)=O [Meprobamate] | 5.94
CSc1nc(NC2CC2)nc(NC(C)(C)C)n1 [Irgarol] | 10.5
C(=Cc1ccccc1)CN1CCN(C(c2ccccc2)c2ccccc2)CC1 [Cinnarizine] | 9.86
CC(Cc1ccccc1)NCCCCl (stereo not given) [Mefenorex] | 5.31
Fc1ccc(C2CCNCC2COc2ccc3c(c2)OCO3)cc1 (stereo not given) [Paroxetine] | 7.87
CC1(C(=O)Nc2ccc(O)c(Cl)c2Cl)CCCCC1 [Fenhexamide] | 10.1
CC1COC(Cn2cncn2)(c2ccc(Oc3ccc(Cl)cc3)cc2Cl)O1 (stereo not given) [Difenoconazole] | 11.6
CCCNCC(O)COc1ccccc1C(=O)CCc1ccccc1 (stereo not given) [Propafenone] | 7.81
CCCNC(C)Cc1ccccc1 (stereo not given) [Amphetamine-N-Propyl] | 4.83
Cc1ccc(S(=O)(=O)NC(=O)NN2CCCCCC2)cc1 [Tolazamide] | 8.09
CC(Cc1ccc(O)cc1)NCC(O)c1cc(O)cc(O)c1 (stereo not given) [Fenoterol] | 3.61
Cc1cc(=O)[nH]c(C(C)C)n1 [Pyrimidinol] | 4.49
CC(N)Cc1cccc(C(F)(F)F)c1 (stereo not given) [Fenfluramine-Nor] | 5.91
COc1ccc(C2Sc3ccccc3N(CCN(C)C)C(=O)C2OC(C)=O)cc1 (stereo not given) [Diltiazem] | 7.18
OC(CCN1CCCCC1)(c1ccccc1)C1CC2C=CC1C2 (stereo not given) [Biperidene] | 7.63
